Values of other authors, collected in patent US20160081937A1, “TABLET WITH INCREASED DRUG LOAD OF ODANACATIB” (SANDOZ AG, priority 2013, published 2016).

Columns and labels:
[1] = crystalline odanacatib
[2] = in vivo

aqueous solubility [1]: low
Structure (SMILES): CC(C)(F)C[C@H](N[C@@H](c1ccc(-c2ccc(S(C)(=O)=O)cc2)cc1)C(F)(F)F)C(=O)NC1(C#N)CC1 [Odanacatib, odanacatib]
oral bioavailability [2]: highly dependable on vehicle, dosage and sample preparation | lumbar spine, hip and femoral neck BMD (patients treated once weekly with 20-50 mg): increases | BMD at the same sites (lumbar spine, hip, femoral neck) (patients treated with low doses): decreases
